According to the supplement of paper PMC13380429:

Legend:
Details in all cases: 72 h
Vero E6 [1] = experiment: relative viability EC50 (midpoint between 100% and the lowest measured viability); higher = less toxic
Caco-2 [2] = experiment: as above
U2OS [3] = experiment: as above
HepG2 [4] = experiment: as above
Calu-3 [5] = experiment: as above
Vero E6 [6] = experiment: drug sensitivity score (DSS) for viability; higher = more toxic; extreme values may be limits of the assay
Caco-2 [7] = experiment: as above
U2OS [8] = experiment: as above
HepG2 [9] = experiment: as above
Calu-3 [10] = experiment: as above
Vero E6 [11] = experiment: cell viability relative to DMSO; higher = less toxic
Caco-2 [12] = experiment: as above
U2OS [13] = experiment: as above
HepG2 [14] = experiment: as above
Calu-3 [15] = experiment: as above

Row | SMILES | relative viability EC50 (Vero E6 [1]) | relative viability EC50 (Caco-2 [2]) | relative viability EC50 (U2OS [3]) | relative viability EC50 (HepG2 [4]) | relative viability EC50 (Calu-3 [5]) | drug sensitivity score (Vero E6 [6]) | drug sensitivity score (Caco-2 [7]) | drug sensitivity score (U2OS [8]) | drug sensitivity score (HepG2 [9]) | drug sensitivity score (Calu-3 [10]) | cell viability (Vero E6 [11]; 1 nM) | cell viability (Vero E6 [11]; 10 nM) | cell viability (Vero E6 [11]; 100 nM) | cell viability (Vero E6 [11]; 1000 nM) | cell viability (Vero E6 [11]; 10000 nM) | cell viability (Caco-2 [12]; 1 nM) | cell viability (Caco-2 [12]; 10 nM) | cell viability (Caco-2 [12]; 100 nM) | cell viability (Caco-2 [12]; 1000 nM) | cell viability (Caco-2 [12]; 10000 nM) | cell viability (U2OS [13]; 1 nM) | cell viability (U2OS [13]; 10 nM) | cell viability (U2OS [13]; 100 nM) | cell viability (U2OS [13]; 1000 nM) | cell viability (U2OS [13]; 10000 nM) | cell viability (HepG2 [14]; 1 nM) | cell viability (HepG2 [14]; 10 nM) | cell viability (HepG2 [14]; 100 nM) | cell viability (HepG2 [14]; 1000 nM) | cell viability (HepG2 [14]; 10000 nM) | cell viability (Calu-3 [15]; 1 nM) | cell viability (Calu-3 [15]; 10 nM) | cell viability (Calu-3 [15]; 100 nM) | cell viability (Calu-3 [15]; 1000 nM) | cell viability (Calu-3 [15]; 10000 nM)
1 | Cc1ncc[nH]1 [2-methylimidazole] | > 10 µM | > 10 µM | > 10 µM | > 10 µM | > 10 µM | 0 | 0 | 0 | 0 | 0 | 96.2% | 97.8% | 96.1% | 94.9% | 108% | 98.7% | 97.4% | 92.6% | 107% | 104% | 98.7% | 97.4% | 101% | 97.8% | 99% | 95.3% | 95.7% | 89.7% | 96.2% | 91.5% | 96.7% | 97.1% | 112% | 107% | 117%
2 | CC(=O)OCC1=C(C(=O)O)N2C(=O)[C@@H](N)[C@H]2SC1 [7-aminocephalosporanic-acid] | > 10 µM | > 10 µM | > 10 µM | > 10 µM | > 10 µM | 0 | 0 | 0 | 0 | 0 | 97.5% | 100% | 96.4% | 95.5% | 98.8% | 101% | 106% | 102% | 98.7% | 100% | 101% | 99% | 100% | 97.8% | 101% | 105% | 117% | 109% | 115% | 99.7% | 116% | 102% | 97.5% | 99.5% | 115%
3 | O=C(O)c1c2ccccc2cc2ccccc12 [9-anthracenecarboxylic-acid] | > 10 µM | > 10 µM | > 10 µM | > 10 µM | > 10 µM | 0 | 0 | 0 | 0 | 0 | 98.4% | 97.1% | 98% | 94.7% | 103% | 93.1% | 95.8% | 95% | 100% | 105% | 100% | 100% | 101% | 101% | 103% | 101% | 90.5% | 102% | 104% | 102% | 97.1% | 97.9% | 99.4% | 101% | 96%
4 | O=C(CCCCCCNC(=O)c1cnc(N(c2ccccc2)c2ccccc2)nc1)NO [ACY-1215] | 2.7 µM | 2.53 µM | 1.87 µM | 1.89 µM | 1.42 µM | 3.2 | 4.9 | 5.6 | 7 | 6 | 92.9% | 100% | 94.2% | 96.9% | 47.7% | 108% | 92.8% | 106% | 94.3% | 27.2% | 102% | 101% | 107% | 88.6% | 33.3% | 96.5% | 108% | 87.3% | 86% | 16.2% | 107% | 93.5% | 100% | 82% | 38.6%
5 | CCN1CCN(Cc2ccc(-c3cc4c(N[C@H](C)c5ccccc5)ncnc4[nH]3)cc2)CC1 [AEE788] | 0.435 µM | > 10 µM | 1.58 µM | > 10 µM | 0.548 µM | 10.9 | 2.4 | 5.1 | 0.2 | 13.7 | 97.6% | 94.7% | 82.2% | 54.4% | 27.1% | 89.5% | 91.9% | 94.8% | 81.9% | 78% | 98.7% | 95.7% | 97.8% | 86.7% | 44.7% | 109% | 95.4% | 98.1% | 110% | 82.5% | 100% | 103% | 84.9% | 38.1% | 3.7%
6 | Cc1c(CN(C)C(=O)/C=C/c2cnc3c(c2)CCC(=O)N3)oc2ccccc12 [AFN-1252] | > 10 µM | > 10 µM | > 10 µM | > 10 µM | > 10 µM | 0 | 0 | 0 | 0 | 0 | 94.2% | 87.9% | 93.6% | 91.3% | 97.7% | 95% | 93.1% | 99% | 101% | 97.1% | 97.9% | 101% | 98.5% | 101% | 102% | 110% | 92.6% | 106% | 90.2% | 110% | 103% | 98.5% | 102% | 108% | 98.1%
7 | Cc1cc(OCCN2CCOCC2)nn1-c1ccc2ccccc2c1 [API-001] | > 10 µM | > 10 µM | > 10 µM | > 10 µM | > 10 µM | 0 | 0 | 0 | 0 | 0 | 96.3% | 96% | 91.9% | 94.8% | 103% | 93.2% | 91.8% | 96.4% | 94.1% | 92% | 98.2% | 98.5% | 102% | 101% | 102% | 102% | 111% | 89.9% | 102% | 103% | 98.5% | 83.4% | 107% | 115% | 96.7%
8 | COc1ccccc1N1CCN(CCN2C(=O)c3ccccc3C(C)(C)C2=O)CC1 [ARC-239] | > 10 µM | > 10 µM | > 10 µM | > 10 µM | > 10 µM | 0 | 0 | 0 | 0 | 0 | 104% | 95.2% | 102% | 102% | 103% | 102% | 101% | 91.3% | 98.2% | 92.6% | 96.8% | 95.3% | 97.9% | 101% | 95.9% | 107% | 95% | 106% | 102% | 97.3% | 105% | 104% | 100% | 102% | 95%
9 | O=C(N[C@H]1CCN(C(=O)c2cc(C(F)(F)F)cc(C(F)(F)F)c2)[C@H](Cc2ccc(Cl)cc2)C1)c1ccnc2ccccc12 [AV-608] | > 10 µM | > 10 µM | > 10 µM | > 10 µM | > 10 µM | 0 | 1.3 | 0 | 0 | 0 | 96% | 100% | 101% | 97.5% | 95.7% | 89.3% | 95% | 96.1% | 97.4% | 75.5% | 101% | 98.8% | 93.5% | 100% | 95.5% | 96.2% | 103% | 98.9% | 98.3% | 97.3% | 115% | 98.6% | 101% | 94.2% | 99.4%
10 | C[C@@H]1COCCN1c1cc(C2(S(C)(=O)=O)CC2)nc(-c2cccc3[nH]ccc23)n1 [AZ20] | 1.57 µM | 1.71 µM | 2.66 µM | 0.973 µM | 1.57 µM | 5.6 | 6.8 | 5.9 | 7.8 | 6 | 102% | 98.2% | 98.5% | 85.4% | 40% | 88.1% | 96.3% | 89.5% | 84.1% | 23.1% | 97.4% | 101% | 95.9% | 94.3% | 9.3% | 110% | 110% | 95.9% | 65.6% | 31.8% | 89.4% | 97% | 91.8% | 82.3% | 34.6%
11 | Cc1nn(C)c2c1C(c1ccc(C(F)(F)F)cc1)C(C#N)=C(N)O2 (stereo not given) [BQU57] | > 10 µM | > 10 µM | > 10 µM | > 10 µM | > 10 µM | 0 | 0 | 0 | 0 | 0 | 104% | 104% | 103% | 101% | 99.7% | 94.3% | 93.5% | 95% | 97.1% | 89.2% | 98% | 101% | 98.8% | 100% | 102% | 109% | 97.9% | 103% | 99% | 102% | 98.7% | 104% | 98.7% | 108% | 104%
12 | O=[N+]([O-])c1cc(Cl)ccc1S(=O)(=O)c1ccccc1 [BTB1] | > 10 µM | > 10 µM | > 10 µM | > 10 µM | > 10 µM | 0 | 0 | 0 | 0 | 0 | 97% | 94.4% | 93.9% | 97.9% | 101% | 95.8% | 90.2% | 97.5% | 98.6% | 100% | 98.5% | 95.4% | 102% | 103% | 102% | 99.2% | 103% | 82.7% | 88.1% | 108% | 97.1% | 98.2% | 107% | 103% | 115%
13 | CC(N)Cc1c[nH]c2ccc(OCc3cccs3)cc12 (stereo not given) [BW-723C86] | > 10 µM | > 10 µM | > 10 µM | > 10 µM | > 10 µM | 0 | 0 | 0 | 1 | 0.7 | 96% | 94.9% | 95.1% | 96.1% | 89.1% | 99.8% | 97.7% | 93% | 94.8% | 98.8% | 102% | 98.2% | 99% | 98.2% | 96.9% | 102% | 107% | 96.8% | 95.5% | 81% | 109% | 95.6% | 98.6% | 104% | 76.5%
14 | CCS(=O)(=O)N1CCC([C@@H](C)n2c(C)c(C(=O)NCc3c(OC)cc(C)[nH]c3=O)c3ccccc32)CC1 [CPI-169] | > 10 µM | > 10 µM | > 10 µM | > 10 µM | > 10 µM | 0 | 0 | 0 | 0 | 0 | 100% | 96.7% | 96.9% | 99.7% | 103% | 95.8% | 94.7% | 101% | 100% | 95% | 92.1% | 101% | 99.3% | 105% | 102% | 104% | 103% | 104% | 94.3% | 101% | 97.3% | 102% | 98.7% | 94.3% | 97.4%
